Assay [1] has as its system P. acnes PRP-007. The experiment in a line: Agar dilution MIC assay. It is filed as cell-based, Propionibacterium acnes. Conditions: P. acnes PRP-007 (Clin). The method, then: (§1) The propionibacteria were cultured and maintained on Wilkins-Chalgren Anaerobe Medium (agar and broth) at pH 6.0; all cultures were incubated anaerobically at 37° C. for 72 hours.
(§2) This is a standard international method for quantitatively assessing the antimicrobial activity of a compound in a solid medium. The test compound was prepared to 40× the highest concentration required (eg, 10 mg/ml for a final concentration of 250 μg/ml) and a series of doubling dilutions were performed in a suitable solvent. A set amount of these antimicrobial stock solutions was then added to molten agar medium (ca. 55° C.), mixed thoroughly, poured into sterile Petri dishes and allowed to cool/set.
(§3) A Multipoint™ Inoculator (AQS Manufacturing Ltd, UK) was used to inoculate the plates by spotting the inocula onto the surface of the agar, delivering approximately 1 to 2 μl per spot (yielding 10^5 CFU(colony forming units) per spot).
(§4) The plate(s) were then incubated under the conditions described above, following which they were examined visually for signs of bacterial growth. The MIC value was ascertained when there was a marked reduction in, or total loss of, growth on the test plate at the lowest concentration as compared to that of the growth on the control plate.
(§5) The assays were conducted in duplicate and included a positive control (culture medium, diluting solvent and inoculum).
A general note: In agar dilution, organisms are placed on agar that contains the substance at set levels.

The subject of assay [2] is P. acnes PRP-068. The experiment in a line: Agar dilution MIC assay. The assay is classed as cell-based, Propionibacterium acnes. Conditions: P. acnes PRP-068 (Ery). The protocol:
as §1, §2, §3, §4, §5

The subject of assay [3] is P. acnes PRP-003. As to the kind of experiment: Agar dilution MIC assay. The assay is classed as cell-based, Propionibacterium acnes. Conditions: P. acnes PRP-003 (Tet). The method, then:
as §1, §2, §3, §4, §5

Assay [4] deals with P. acnes PRP-039. As to the kind of experiment: Agar dilution MIC assay. It is filed as cell-based, Propionibacterium acnes. Conditions: P. acnes PRP-039 (Tet/MLS). The method, then:
as §1, §2, §3, §4, §5

The test system of assay [5] is P. acnes PRP-008. The experiment in a line: Agar dilution MIC assay. Conditions: P. acnes PRP-008 (Clin). The assay is classed as cell-based, Propionibacterium acnes. The protocol: as §1, §2, §3, §4, §5
Assay [6] relates to P. acnes PRP-023. As to the kind of experiment: Agar dilution MIC assay. The assay is classed as cell-based, Propionibacterium acnes. Conditions: P. acnes PRP-023 (MLSK). The protocol: as §1, §2, §3, §4, §5
Assay [7] deals with P. acnes PRP-002. As to the kind of experiment: Agar dilution MIC assay. It is filed as cell-based, Propionibacterium acnes. The conditions noted are these: P. acnes PRP-002 (Tet/MLS). The protocol:
as §1, §2, §3, §4, §5

The test system of assay [8] is P. acnes PRP-101. The experiment in a line: Agar dilution MIC assay. The assay is classed as cell-based, Propionibacterium acnes. Conditions: P. acnes PRP-101 (Tet/MLS). The method, then:
as §1, §2, §3, §4, §5

In assay [9] the test system is P. acnes PRP-046. As to the kind of experiment: Agar dilution MIC assay. It is filed as cell-based, Propionibacterium acnes. Conditions: P. acnes PRP-046 (resistance None). The protocol:
as §1, §2, §3, §4, §5

Assay [10] has as its system P. acnes PRP-102. The experiment in a line: Agar dilution MIC assay. It is filed as cell-based, Propionibacterium acnes. The conditions noted are these: P. acnes PRP-102 (Tet/MLS). The protocol:
as §1, §2, §3, §4, §5

For assay [11], the system named is P. acnes PRP-017. The experiment in a line: Agar dilution MIC assay. The assay is classed as cell-based, Propionibacterium acnes. Conditions: P. acnes PRP-017 (MLS). The protocol: as §1, §2, §3, §4, §5
In assay [12] the test system is P. acnes PRP-059. As to the kind of experiment: Agar dilution MIC assay. The assay is classed as cell-based, Propionibacterium acnes. The conditions noted are these: P. acnes PRP-059 (MLS). The method, then: as §1, §2, §3, §4, §5
In assay [13] the test system is P. granulosum PRP-044. As to the kind of experiment: Agar dilution MIC assay. It is filed as cell-based, Propionibacterium granulosum. Conditions: P. granulosum PRP-044 (MLS). The method, then:
as §1, §2, §3, §4, §5

Assay [14] concerns P. granulosum NCTC 11865. As to the kind of experiment: Agar dilution MIC assay. It is filed as cell-based, Propionibacterium granulosum. The conditions noted are these: P. granulosum NCTC 11865 (resistance None). The protocol:
as §1, §2, §3, §4, §5

Assay [15] deals with P. granulosum PRP-055. As to the kind of experiment: Agar dilution MIC assay. It is filed as cell-based, Propionibacterium granulosum. Conditions: P. granulosum PRP-055 (resistance None). The method, then:
as §1, §2, §3, §4, §5

Assay [16] relates to P. granulosum PRP-043. As to the kind of experiment: Agar dilution MIC assay. Conditions: P. granulosum PRP-043 (MLS). It is filed as cell-based, Propionibacterium granulosum. The protocol: as §1, §2, §3, §4, §5
For assay [17], the system named is P. granulosum PRP-019. As to the kind of experiment: Agar dilution MIC assay. It is filed as cell-based, Propionibacterium granulosum. The conditions noted are these: P. granulosum PRP-019 (MLSK). The method, then: as §1, §2, §3, §4, §5
Assay [18] has as its system P. granulosum PRP-005. The experiment in a line: Agar dilution MIC assay. The assay is classed as cell-based, Propionibacterium granulosum. Conditions: P. granulosum PRP-005 (MLSK). The method, then: as §1, §2, §3, §4, §5
Assay [19] concerns P. granulosum PRP-021. As to the kind of experiment: Agar dilution MIC assay. It is filed as cell-based, Propionibacterium granulosum. The conditions noted are these: P. granulosum PRP-021 (MLS). The method, then: as §1, §2, §3, §4, §5
The subject of assay [20] is P. granulosum PRP-006. The experiment in a line: Agar dilution MIC assay. The conditions noted are these: P. granulosum PRP-006 (MLS). It is filed as cell-based, Propionibacterium granulosum. The method, then: as §1, §2, §3, §4, §5
Assay [21] relates to Por. gingivalis NCTC 11834. The experiment in a line: MIC assay, liquid medium. It is filed as cell-based, Porphyromonas gingivalis. The method, then:
The P. gingivalis strains were cultured and maintained on Wilkins-Chalgren Anaerobe Medium (agar and broth) at pH 7.0; all cultures were incubated anaerobically at 37° C. for 5-7 days.
This is a standard international method for quantitatively assessing the antimicrobial activity of a compound in a liquid medium. The method used a sterile 96-well microtitre plate, capable of holding about 200 μl of liquid per well. The wells contained liquid culture medium and ranges of decreasing concentrations of the relevant test compound in doubling dilutions (eg, 1000, 500, 250, 125 . . . μg/ml, etc. down to 0.49 μg/ml). The culture media were as described above.
The wells were inoculated with a liquid suspension of freshly grown micro-organism and incubated under the conditions described above. After incubation, the microtitre plate was examined visually (with the aid of a light box) for cloudiness in each well, which would indicate microbial growth. The MIC value was recorded as the lowest concentration of test compound required to inhibit microbial growth, ie, the lowest concentration for which the liquid in the well remained clear.
The assays included both negative (culture medium with no micro-organisms) and positive (culture medium plus diluting solvent plus micro-organism) controls.

Assay [22] deals with Por. gingivalis NCTC 11834. As to the kind of experiment: MBC assay. The assay is classed as cell-based, Porphyromonas gingivalis. The protocol:
The P. gingivalis strains were cultured and maintained on Wilkins-Chalgren Anaerobe Medium (agar and broth) at pH 7.0; all cultures were incubated anaerobically at 37° C. for 5-7 days. This assay, normally carried out after an MIC assay, determines the rnininiurn concentration of a compound that is lethal to the micro-organism being tested. […] These samples were then individually sub-cultured on antibiotic-free agar medium, under the incubation conditions described above. Following incubation they were examined visually for microbial growth.

This passage reports MIC and MBC results from US20100273876A1, “ANTIBACTERIAL FORMULATION COMPRISING A DIALKYL SULPHOSUCCINATE AND A CARBANILIDE ANTIBACTERIAL AGENT” (priority 2007, published 2010).

Some results are limits rather than exact numbers.

As a reminder, the MIC is the least concentration at which growth counts as inhibited. Read a high MIC as a less susceptible organism. What is called MBC is the smallest concentration meeting the test's criterion for killing. A lower MBC goes with more potent killing. For the substance dioctyl sodium sulphosuccinate [DOSS], the minimal inhibitory concentration (MIC) in assay [1], in assay [2], in assay [3], in assay [4], in assay [5] and in assay [6] was 15.6 µg/mL each time. The minimal inhibitory concentration (MIC) in [7] stood at 15.6 µg/mL; in assay [8] it was 15.6 µg/mL; in [9], 15.6 µg/mL; in [10], 31.25 µg/mL; in assay [11], 15.6 µg/mL; in assay [12] it was 15.6 µg/mL. For the same substance, the MIC in [13] was 31.25 µg/mL; in assay [14], 31.25 µg/mL; in [15] it was 31.25 µg/mL; in [16], 31.25 µg/mL; in [17] it was 15.6 µg/mL; in assay [18] it was 15.6 µg/mL. For the same substance, the MIC in [19] was 31.25 µg/mL; in assay [20], 31.25 µg/mL; in assay [21], <0.49 µg/mL. Moreover, the minimal bactericidal concentration (MBC) in assay [22] is <0.49 µg/mL.
